# Measured values reported in patent publication US6391901B1, “Thrombin inhibitors” (Eli Lilly and Company, priority 1997, dated 2002).
# Counter-ions that a name gives are not always drawn.
row,melting point,Structure (SMILES)
1,150 °C (dec.),"COc1cc(Cc2c(-c3ccc(NS(=O)(=O)c4ccccc4)cc3)sc3cc(O)ccc23)ccc1CN1CCCC1 (as salt: oxalate) [Example 31, 6-Hydroxy-3-[3-methoxy-4-(1-pyrrolidinylmethyl)benzyl]-2-[4-(phenylsulfonylamino)phenyl]benzo[b]thiophene Oxalate]"
2,180 °C (dec.),"COc1cc(C(=O)c2c(-c3ccc(NS(=O)(=O)c4ccccc4)cc3)sc3cc(O)ccc23)ccc1CN1CCCC1 (as salt: oxalate) [Example 32, 6-Hydroxy-2-[4-(phenylsulfonylamino)phenyl)benzo[b]thiophen-3-yl 3-Methoxy-4-(1-pyrrolidinylmethyl)phenyl Ketone Oxalate]"
